Data from patent US6340704B1, “Cell differentiation inducing amide derivatives, their production and use” (Takeda Chemical Industries, Ltd., priority 1997, dated 2002).
Counter-ions that a name gives are not always drawn. Marks after values point to notes of the source that are not given here.

Experiments:
[1] = test system: Mouse-derived MC3T3-E1 osteoblast cells; assay: Induction of alkaline phosphatase (ALP) production in mouse osteoblastic cells, with or without 3 ng/ml BMP-4/7 heterodimer; assay type: cell-based; details: 72 hours; for ALP Activity (1000 × A405 ± SD) BMP Addition: medium with 3 ng/ml BMP-4/7 heterodimer; for ALP Activity (1000 × A405 ± SD) BMP Non-Addition: no BMP
Experimental: Induction of Alkaline Phosphatase (ALP) Production in Mouse Osteoblastic Cells
Mouse-derived MC3T3-E1 osteoblast cells were seeded in a 96-well microtiter plate of α-minimum essential medium containing FCS (fetal calf serum) (8000 cells/well). After two days when the growth had become confluent, the test substance diluted to various concentrations in Table 1 with the medium either containing or not containing 3 ng/ml of BMP-4/7 heterodimer (described in Japanese Patent Application No. 111255/1994) was added, and the microtiter plate was further incubated for 72 hours. The plate was washed once with a physiological saline solution, followed by addition of a substrate solution. The resulting mixture was incubated at room temperature for 15 minutes, followed by addition of 0.05N NaOH to terminate the reaction. The absorbance at 405 nm was measured.

| Compound | melting point [°C] | ALP Activity (1000 × A405 ± SD) BMP Addition ([1]; compound 0.01 μM) | ALP Activity (1000 × A405 ± SD) BMP Non-Addition ([1]; compound 0.01 μM) | ALP Activity (1000 × A405 ± SD) BMP Addition ([1]; compound 0.1 μM) | ALP Activity (1000 × A405 ± SD) BMP Non-Addition ([1]; compound 0.1 μM) | ALP Activity (1000 × A405 ± SD) BMP Addition ([1]; compound 1 μM) | ALP Activity (1000 × A405 ± SD) BMP Non-Addition ([1]; compound 1 μM) |
| --- | --- | --- | --- | --- | --- | --- | --- |
| CNC(=O)c1cc2ccc3c(c2c(-c2ccc(OC)cc2)c1CO)OCO3 [Example 2, N-Methyl-9-(4-methoxyphenyl)-8-hydroxymethyl-naphtho[1,2-d]-1,3-dioxole-7-carboxamide] | 187 to 190 | 323 ± 13 1000 × A405 | 80 ± 2 1000 × A405 | 354 ± 15* 1000 × A405 | 95 ± 7* 1000 × A405 | 478 ± 17* 1000 × A405 | 162 ± 18* 1000 × A405 |
| CNC(=O)c1cc2ccc3c(c2c(-c2ccc(Cl)cc2)c1CO)OCO3 [Example 3, N-Methyl-9-(4-chlorophenyl)-8-hydroxymethyl-naphtho[1,2-d]-1,3-dioxole-7-carboxamide] | 202 to 204 | – | – | – | – | – | – |
| CNC(=O)c1cc2ccc3c(c2c(-c2ccc4ccccc4c2)c1CO)OCO3 [Example 4, N-Methyl-9-(2-naphthyl)-8-hydroxymethyl-naphtho[1,2-d]-1,3-dioxole-7-carboxamide] | 207 to 210 | 301 ± 8 1000 × A405 | 86 ± 3 1000 × A405 | 389 ± 25* 1000 × A405 | 108 ± 7* 1000 × A405 | 554 ± 49* 1000 × A405 | 168 ± 4* 1000 × A405 |
| CNC(=O)c1cc2ccc3c(c2c(-c2ccc(F)cc2)c1CO)OCO3 [Example 5, N-Methyl-9-(4-fluorophenyl)-8-hydroxymethyl-naphtho[1,2-d]-1,3-dioxole-7-carboxamide] | 210 to 213 | 170 ± 20 1000 × A405 | 49 ± 1 1000 × A405 | 237 ± 14* 1000 × A405 | 62 ± 3* 1000 × A405 | 431 ± 26* 1000 × A405 | 157 ± 11* 1000 × A405 |
| NC(=O)c1nc2ccc3c(c2c(-c2ccc4c(c2)OCO4)c1CO)OCO3 [Example 8, 9(1,3-Benzodioxole-5-yl)-8hydroxymethyl-1,3-dioxolo[4,5-f]quinoline-7-carboxamide] | – | 426 ± 28 1000 × A405 | 105 ± 22 1000 × A405 | 477 ± 15* 1000 × A405 | 134 ± 12 1000 × A405 | 570 ± 63* 1000 × A405 | 186 ± 26 1000 × A405 |
| CNC(=O)c1nc2ccc(C)cc2c(-c2ccccc2)c1CO [Example 9, N-methyl-(3-hydroxmethyl-6-methyl-4-phenylquinoline)-2-carboxamide] | 136 to 137 | – | – | – | – | – | – |
| CNC(=O)c1nc2ccc(C)cc2c(-c2ccc(F)cc2F)c1CO [Example 10, N-Methyl-[3-hydroxymethyl-6-methyl-4-(2,4-difluorophenyl)quinoline]-2-carboxamide] | 140 to 141 | – | – | – | – | – | – |
| Cc1c(C(N)=O)nc2ccc3c(c2c1-c1ccc2c(c1)OCO2)OCO3 [Example 22, 9-(1,3-Benzodioxole-5-yl)-8-methyl-1,3-dioxole[4,4-f]quinoline-7-carboxamide] | – | 187 ± 3 1000 × A405 | 135 ± 8* 1000 × A405 | 226 ± 6* 1000 × A405 | 149 ± 11* 1000 × A405 | 326 ± 18* 1000 × A405 | 190 ± 10* 1000 × A405 |
| CNC(=O)c1cc2ccc3c(c2c(-c2ccc(OC(F)(F)F)cc2)c1CO)OCO3 [Example 24, N-Methyl-9-(4-trifluoromethoxyphenyl)-8-hydroxymethylnaphtho[1,2-d]-1,3-dioxol-7-carboxamide] | 195 to 197 | – | – | – | – | – | – |
| CNC(=O)c1cc(-c2ccc(F)cc2)c2c3c(ccc2n1)OCO3 [Example 46, 9-(4-Fluorophenyl)-N-methyl-1,3-dioxolo[4,5-F]quinoline-7-carboxamide] | 233 to 235 | – | – | – | – | – | – |
| O=C(c1cc(-c2ccc(F)cc2)c2c3c(ccc2n1)OCO3)N1CCN(Cc2ccccc2)CC1 [Example 48, N-Benzyl-N-[9-(4-fluorophenyl)-1,3-dioxolo[4,5-f]quinoline-7-carbonyl]piperazine] | 147 to 148 | – | – | – | – | – | – |

Further lines, with some results ahead:

| melting point [°C] | Compound | ALP Activity (1000 × A405 ± SD) BMP Addition ([1]; compound 0.01 μM) | ALP Activity (1000 × A405 ± SD) BMP Non-Addition ([1]; compound 0.01 μM) | ALP Activity (1000 × A405 ± SD) BMP Addition ([1]; compound 0.1 μM) | ALP Activity (1000 × A405 ± SD) BMP Non-Addition ([1]; compound 0.1 μM) | ALP Activity (1000 × A405 ± SD) BMP Addition ([1]; compound 1 μM) | ALP Activity (1000 × A405 ± SD) BMP Non-Addition ([1]; compound 1 μM) |
| --- | --- | --- | --- | --- | --- | --- | --- |
| 233 to 240 | CN(C)CCCNC(=O)c1cc(-c2ccc3c(c2)OCO3)c2c3c(ccc2c1)OCO3 (as salt: hydrochloride) [Example 19, N-(3-Dimethylaminopropyl)-9-(1,3-benzodioxole-5-yl)-naphtho [1,2-d]-1,3-dioxole-7-carboxamide hydrochloride] | – | – | – | – | – | – |
| 233 to 235 | CNC(=O)c1cc2ccc3c(c2c(-c2ccc4c(c2)OCO4)c1CO)OCO3 [Example 1, N-Methyl-9-(1,3-benzodioxole-5-yl)-8-hydroxymethylnaphtho[1,2-d]-1,3-dioxole-7-carboxamide] | 193 ± 15 1000 × A405 | 50 ± 5 1000 × A405 | 213 ± 5* 1000 × A405 | 58 ± 5* 1000 × A405 | 386 ± 30* 1000 × A405 | 102 ± 5* 1000 × A405 |
| 210 to 212 | CNC(=O)c1cc2ccc3c(c2c(-c2ccc(C)cc2)c1CO)OCO3 [Example 6, N-Methyl-9-(4-methylphenyl)-8-hydroxymethyl-naphtho[1,2-d]-1,3-dioxole-7-carboxamide] | 177 ± 14 1000 × A405 | 51 ± 2 1000 × A405 | 248 ± 6* 1000 × A405 | 74 ± 1* 1000 × A405 | 459 ± 35* 1000 × A405 | 168 ± 1* 1000 × A405 |
| 222 to 224 | CNC(=O)c1cc2cc3c(cc2c(-c2ccc4c(c2)OCO4)c1CO)OCO3 [Example 7, N-Methyl-(1,3-benzodioxole-5-yl)-7-hydroxymethyl-naphto[2,3-d]-1,3-dioxole-6-carboxamide] | – | – | – | – | – | – |
| 187 to 189 | COc1ccc(-c2cc(C(N)=O)cc3ccc4c(c23)OCO4)cc1 [Example 11, 9(4-Methoxyphenyl)-naphtho[1,2,-d]-1,3,-dioxole-7-carboxamide] | – | – | – | – | – | – |
| 207 to 209 | NC(=O)c1cc(-c2ccc(C(F)(F)F)cc2)c2c3c(ccc2c1)OCO3 [Example 12, 9-(4-Trifluromethylphenyl)-naphto[1,2-d]-1,3-dixole-7-carboxamide] | – | – | – | – | – | – |
| 237 to 239 | Cc1c(C(N)=O)cc(-c2ccc3c(c2)OCO3)c2c3c(ccc12)OCO3 [Example 13, 9-(1,3-Benzodioxole-5-yl)-6-methyl-naphto[1,2-d]-1,3-dioxole-7-carboxamide] | – | – | – | – | – | – |
| 267 to 269 | NC(=O)c1cc(-c2ccc3c(c2)OCO3)c2c3c(ccc2c1)OCO3 [Example 14, 9-(1,3-Benzodioxole-5-yl)-naphtho[1,2-d]-1,3-dioxole-7-carboxamide] | – | – | – | – | – | – |
| 206 to 208 | CNC(=O)c1cc(-c2ccc3c(c2)OCO3)c2c3c(ccc2c1)OCO3 [Example 15, N-Methyl-9-(1,3-benzodioxole-5-yl)-naphtho;[1,2,-d]-1,3-dioxole-7-carboxamide] | – | – | – | – | – | – |
| 160 to 161 | CN(C)C(=O)c1cc(-c2ccc3c(c2)OCO3)c2c3c(ccc2c1)OCO3 [Example 16, N,N-Dimethyl-9-(1,3,-benzodioxole-5-yl)-naphtho[1,2-d]-1,3,-dioxole-7-carboxamide] | – | – | – | – | – | – |
| 141 to 146 | CNC(=O)c1nc2ccc3c(c2c(-c2ccc4c(c2)OCO4)c1C)OCO3 [Example 23, N-methyl-9-(1,3-benzodioxole-5yl)-8-methyl-1,3-dioxolo [4,5-f]quinoline-7-carboxamide] | – | – | – | – | – | – |
| 188 to 190 | NC(=O)c1cc(-c2ccc(OC(F)(F)F)cc2)c2c3c(ccc2c1)OCO3 [Example 25, 9-(4-Trifluoromethoxyphenyl)naphtho[1,2-d]-1,3-dioxol-7-carboxamide] | – | – | – | – | – | – |
